# According to patent US10004711B2, “Methods and compositions comprising 10-hydroxy-2-decenoic acid” (DSM IP ASSETS B.V., priority 2014, dated 2018):
# Tests used:
# [1] = system: 19-20 month-old male rats; test: Elevated plus-maze, rats fed QBA alone or QBA+DHA; type: in vivo, rat; conditions: QBA 0, DHA 0.07% weight of diet
# Method: Rats were fed QBA and subjected to an elevated plus-maze. The elevated plus-maze was elevated ˜85 cm above the floor and consisted of two open and two closed arms of the same size (50×10 cm). The closed arms were surrounded by walls 40 cm high, and the arms were constructed of black acrylic slabs that radiated from a central platform (10×10 cm) to form a plus sign. Each rat was placed in the central platform facing one of the open arms, and its behavior was recorded during a 5-min testing period with video capture software. More time spent in the open arms is an indication of reduced anxiety-like state. Rats were tested at 18 months old (N=11-13 per group).
# The dose-response characteristics of 10-Hydroxy-2-decenoic acid's (QBA's) in combination with DHA for potential brain health benefits during aging were assessed for mood in 19-20 month-old male rats (N=11-14 per group). Rats were fed QBA alone or QBA+DHA and subjected to an elevated plus-maze.
# [2] = Body weight of aged male rats fed QBA and/or DHA (Example 8); type: in vivo, rat; conditions: DHA 0.07% weight of diet
# [3] = as above; type: in vivo, rat; conditions: DHA 0.07% weight of diet; remark: listed apart in the source
# Method: Aged male rats were fed 10-Hydroxy-2-decenoic acid (QBA) for approximately […] from 12-months to 20-months of age and the weight of rats was recorded.
# [4] = Weight after Barnes maze psychological stress (Example 9); type: in vivo, rat; conditions: for % Change (Weight after Barnes maze): DHA 0.07% weight of diet
# Method: Aged male rats were fed 10-Hydroxy-2-decenoic acid (QBA) for approximately […] from 12-months to 20-months of age and the weight of rats was recorded (N=11-14 per group). During the last month of QBA feeding animals were subjected to the psychological stress of the Barnes maze.
# [5] = system: RAW264.7 mouse macrophage cell line; test: IL-1β levels after LPS stimulation; type: cell-based; conditions: Dexamethasone, concentration not given; LPS 100 ng/mL; 24 h
# Method: (§1) Cultures of the RAW264.7 mouse macrophage cell line were pre-treated with 10-Hydroxy-2-decenoic acid (QBA) for 1 hour prior to stimulation with lipopolysaccharide (LPS, 100 ng/mL). After 24 hours of incubation, interleukin […] (IL-1β) and tumor necrosis factor-α (TNFα) levels were determined by Luminex technology and cell numbers were measured using Alamar Blue. Results are given as a ratio of cytokine concentration/cell number.
# [6] = system: RAW264.7 mouse macrophage cell line; test: TNFα levels after LPS stimulation; type: cell-based; conditions: Dexamethasone, concentration not given; LPS 100 ng/mL; 24 h
# Method: as §1
smiles,measurement,setting,value
"CC/C=C\C/C=C\C/C=C\C/C=C\C/C=C\C/C=C\CCC(=O)O [DHA, all-cis-docosa-4,7,10,13,16,19-hexaenoic acid]",Time (s) in Open Arm,[1],32.4 s
same,Avg Wt,[2]; study day 60,614.6 g
same,Avg Wt,[2]; study day 130,635.2 g
same,Avg Wt,[2]; study day 144,632.5 g
same,Avg Wt,[3]; study day 0,552.9 g
same,Avg Wt,[3]; study day 4,568.8 g
same,Avg Wt,[3]; study day 11,579.8 g
same,Avg Wt,[3]; study day 18,592.4 g
same,Avg Wt,[3]; study day 25,594.4 g
same,Avg Wt,[3]; study day 32,600.5 g
same,Avg Wt,[3]; study day 39,605.1 g
same,Avg Wt,[3]; study day 46,607.2 g
same,Avg Wt,[3]; study day 53,610.6 g
same,Avg Wt,[3]; study day 67,616.2 g
same,Avg Wt,[3]; study day 74,617.6 g
same,Avg Wt,[3]; study day 81,619.7 g
same,Avg Wt,[3]; study day 88,623.2 g
same,Avg Wt,[3]; study day 95,624.8 g
same,Avg Wt,[3]; study day 102,629.4 g
same,Avg Wt,[3]; study day 109,632.9 g
same,Avg Wt,[3]; study day 116,636.3 g
same,Avg Wt,[3]; study day 123,631.2 g
same,Avg Wt,[3]; study day 137,633.1 g
same,Avg Wt,[3]; study day 151,634.6 g
same,% Change (Weight after Barnes maze),[4]; behavior stress day 7,−0.76%
same,% Change (Weight after Barnes maze),[4]; behavior stress day 14,−0.57%
same,% Change (Weight after Barnes maze),[4]; behavior stress day 21,−0.88%
same,% Change (Weight after Barnes maze),[4]; behavior stress day 28,−0.56%
same,% Change (Weight after Barnes maze),[4]; behavior stress day 35,−0.23%
same,weight loss associated with the psychological stress,[4]; summary of Table 15,did not produce the same results
"C[C@@H]1C[C@H]2[C@@H]3CCC4=CC(=O)C=C[C@]4(C)[C@@]3(F)[C@@H](O)C[C@]2(C)[C@@]1(O)C(=O)CO [Dexamethasone, reference compound]",IL-1β (pg/mL)/Cell Numbers,[5],0.0013 (pg/mL)/Cell Numbers
same,TNFα (pg/mL)/Cell Numbers,[6],0.153 (pg/mL)/Cell Numbers
